In PubChem BioAssay (NCI):
Where “and” joins values, the source holds several entries; their conditions need not be identical. Identical values can stand only once.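 Results reflect a 48-hour exposure of cells in 96-well plates to compound at five concentrations. GI50: concentration for 50% inhibition of growth. At the TGI there is no net growth.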

Tests used:
Experiment in all cases: NCI anticancer screen, dose series, 48 h
SK-MEL-2 melanoma = tested on: SK-MEL-2 melanoma
DU-145 prostate = tested on: DU-145 prostate
HCT-116 colon = tested on: HCT-116 colon
MDA-MB-435 = tested on: MDA-MB-435
LOX IMVI melanoma = tested on: LOX IMVI melanoma
OVCAR-3 ovarian = tested on: OVCAR-3 ovarian
SK-MEL-28 melanoma = tested on: SK-MEL-28 melanoma
CAKI-1 renal = tested on: CAKI-1 renal
SF-539 CNS = tested on: SF-539 CNS
TK-10 renal = tested on: TK-10 renal
HL-60(TB) leukemia = tested on: HL-60(TB) leukemia
EKVX NSCLC = tested on: EKVX NSCLC
SW-620 colon = tested on: SW-620 colon
OVCAR-8 ovarian = tested on: OVCAR-8 ovarian
COLO 205 colon = tested on: COLO 205 colon
NCI-H522 lung = tested on: NCI-H522 lung
SK-OV-3 ovarian = tested on: SK-OV-3 ovarian
MALME-3M melanoma = tested on: MALME-3M melanoma
T-47D breast = tested on: T-47D breast
HCT-15 colon = tested on: HCT-15 colon
UACC-257 melanoma = tested on: UACC-257 melanoma
OVCAR-4 ovarian = tested on: OVCAR-4 ovarian
OVCAR-5 ovarian = tested on: OVCAR-5 ovarian
RPMI-8226 leukemia = tested on: RPMI-8226 leukemia
HT29 colon = tested on: HT29 colon
NCI-H460 lung = tested on: NCI-H460 lung
786-0 renal = tested on: 786-0 renal
HOP-62 NSCLC = tested on: HOP-62 NSCLC
RXF 393 renal = tested on: RXF 393 renal
NCI-H226 lung = tested on: NCI-H226 lung
SNB-19 CNS = tested on: SNB-19 CNS
ACHN renal = tested on: ACHN renal
MDA-MB-231 breast = tested on: MDA-MB-231 breast
MOLT-4 leukemia = tested on: MOLT-4 leukemia
HS 578T breast = tested on: HS 578T breast
MCF7 breast = tested on: MCF7 breast
SK-MEL-5 melanoma = tested on: SK-MEL-5 melanoma
NCI/ADR-RES ovarian = tested on: NCI/ADR-RES ovarian
BT-549 breast = tested on: BT-549 breast
SF-295 CNS = tested on: SF-295 CNS
SF-268 CNS = tested on: SF-268 CNS
K-562 leukemia = tested on: K-562 leukemia
HCC-2998 colon = tested on: HCC-2998 colon
PC-3 prostate = tested on: PC-3 prostate
KM12 colon = tested on: KM12 colon
SNB-75 CNS = tested on: SNB-75 CNS
M14 melanoma = tested on: M14 melanoma
HOP-92 NSCLC = tested on: HOP-92 NSCLC
U251 CNS = tested on: U251 CNS
UO-31 renal = tested on: UO-31 renal
CCRF-CEM leukemia = tested on: CCRF-CEM leukemia
SN12C renal = tested on: SN12C renal
IGROV1 ovarian = tested on: IGROV1 ovarian
UACC-62 melanoma = tested on: UACC-62 melanoma
A498 renal = tested on: A498 renal
NCI-H23 lung = tested on: NCI-H23 lung
A549 NSCLC = tested on: A549 NSCLC
SR leukemia = tested on: SR leukemia

## CCOC(=O)N1CCN(/[N+]([O-])=N/Oc2ccc([N+](=O)[O-])cc2[N+](=O)[O-])CC1
SK-MEL-2 melanoma
  GI50: 7.08 µM
  TGI: 25.9 µM
DU-145 prostate
  GI50: 4.73 µM
  TGI: 19.2 µM
HCT-116 colon
  GI50: 0.929 µM
  TGI: 3.66 µM
MDA-MB-435
  GI50: 0.315 µM
  TGI: 2.98 µM
LOX IMVI melanoma
  GI50: 0.258 µM
  TGI: > 100 µM
OVCAR-3 ovarian
  GI50: 0.542 µM
  TGI: 1.82 µM
SK-MEL-28 melanoma
  GI50: 1.82 µM
  TGI: 6.69 µM
CAKI-1 renal
  GI50: 0.521 µM
  TGI: 1.96 µM
SF-539 CNS
  GI50: 0.424 µM
  TGI: 20.9 µM
TK-10 renal
  GI50: 0.406 µM
  TGI: 5.57 µM
HL-60(TB) leukemia
  GI50: 0.0761 µM
  TGI: 0.201 µM
EKVX NSCLC
  GI50: 12.6 µM
  TGI: 32.6 µM
SW-620 colon
  GI50: 0.434 µM
  TGI: 35.7 µM
OVCAR-8 ovarian
  GI50: 3.49 µM
  TGI: 12.9 µM
COLO 205 colon
  GI50: 0.349 µM
  TGI: 14.4 µM
NCI-H522 lung
  GI50: 4.36 µM
  TGI: 22.4 µM
SK-OV-3 ovarian
  GI50: 5.61 µM
  TGI: 18.4 µM
MALME-3M melanoma
  GI50: 1.59 µM
  TGI: 4.05 µM
T-47D breast
  GI50: 8 µM
  TGI: > 67.1 µM
HCT-15 colon
  GI50: 0.346 µM
  TGI: 1.46 µM
UACC-257 melanoma
  GI50: 2.27 µM
  TGI: 7 µM
OVCAR-4 ovarian
  GI50: 0.438 µM
  TGI: 1.78 µM
OVCAR-5 ovarian
  GI50: 2.16 µM
  TGI: 9.09 µM
RPMI-8226 leukemia
  GI50: 0.34 µM
  TGI: 12.9 µM
HT29 colon
  GI50: 0.322 µM
  TGI: 15.7 µM
NCI-H460 lung
  GI50: 4.41 µM
  TGI: 18 µM
786-0 renal
  GI50: 0.322 µM
  TGI: 1.64 µM
HOP-62 NSCLC
  GI50: 3.14 µM
  TGI: 13.6 µM
RXF 393 renal
  GI50: 1.95 µM
  TGI: 5.9 µM
NCI-H226 lung
  GI50: 3.77 µM
  TGI: 16.7 µM
SNB-19 CNS
  GI50: 6.68 µM
  TGI: 20.7 µM
ACHN renal
  GI50: 0.479 µM
  TGI: 1.37 µM
MDA-MB-231 breast
  GI50: 1.99 µM
  TGI: 7.08 µM
MOLT-4 leukemia
  GI50: 0.482 µM
HS 578T breast
  GI50: 5.84 µM
  TGI: 37.4 µM
MCF7 breast
  GI50: 0.365 µM
  TGI: 8.16 µM
SK-MEL-5 melanoma
  GI50: 2.77 µM
  TGI: 12.1 µM
NCI/ADR-RES ovarian
  GI50: 3.88 µM
  TGI: 14.9 µM
BT-549 breast
  GI50: 2.62 µM
  TGI: 18.6 µM
SF-295 CNS
  GI50: 1.73 µM
  TGI: 4.56 µM
SF-268 CNS
  GI50: 3.86 µM
  TGI: 10.6 µM
K-562 leukemia
  GI50: 0.153 µM
  TGI: 3.72 µM
HCC-2998 colon
  GI50: 1.12 µM
  TGI: 2.33 µM
PC-3 prostate
  GI50: 3.48 µM
  TGI: 16.7 µM
KM12 colon
  GI50: 1.78 µM
  TGI: 8.56 µM
SNB-75 CNS
  GI50: 4.92 µM
  TGI: 18.8 µM
M14 melanoma
  GI50: 0.328 µM
  TGI: 1.43 µM
HOP-92 NSCLC
  GI50: 0.122 µM
  TGI: 3.75 µM
U251 CNS
  GI50: 1.55 µM
  TGI: 21.5 µM
UO-31 renal
  GI50: 10.6 µM
  TGI: 23.3 µM
CCRF-CEM leukemia
  GI50: 0.158 µM
  TGI: 12.2 µM
SN12C renal
  GI50: 1.45 µM
  TGI: 6.92 µM
IGROV1 ovarian
  GI50: 9.04 µM
  TGI: 30.2 µM
UACC-62 melanoma
  GI50: 2.65 µM
  TGI: 12.8 µM
A498 renal
  GI50: 17.5 µM
  TGI: 35.6 µM
NCI-H23 lung
  GI50: 1.82 µM
  TGI: 3.69 µM
A549 NSCLC
  GI50: 3.63 µM
  TGI: 14.1 µM

## Fc1ccc(C2CC(c3cccc(Nc4ccncc4)c3)=NN2c2ccc(Cl)cc2)cc1 (stereo unspecified)
SK-MEL-2 melanoma
  GI50: 1.89 µM
  TGI: 3.73 µM
DU-145 prostate
  GI50: 1.78 µM
  TGI: 3.21 µM
HCT-116 colon
  GI50: 1.73 µM
  TGI: 3.39 µM
MDA-MB-435
  GI50: 1.58 µM
  TGI: 2.95 µM
LOX IMVI melanoma
  GI50: 1.69 µM
  TGI: 3.06 µM
OVCAR-3 ovarian
  GI50: 1.62 µM
  TGI: 3.07 µM
SK-MEL-28 melanoma
  GI50: 1.72 µM
  TGI: 3.24 µM
CAKI-1 renal
  GI50: 1.39 µM
  TGI: 2.71 µM
SF-539 CNS
  GI50: 1.65 µM
  TGI: 3.07 µM
TK-10 renal
  GI50: 1.74 µM
  TGI: 3.37 µM
HL-60(TB) leukemia
  GI50: 1.95 µM
  TGI: 4.22 µM
EKVX NSCLC
  GI50: 2.11 µM
  TGI: 6.33 µM
SW-620 colon
  GI50: 1.64 µM
  TGI: 3.09 µM
NCI-H522 lung
  GI50: 1.78 µM
  TGI: 3.68 µM
SK-OV-3 ovarian
  GI50: 1.98 µM
  TGI: 4.53 µM
MALME-3M melanoma
  GI50: 1.59 µM
  TGI: 3.1 µM
HCT-15 colon
  GI50: 1.91 µM
  TGI: 3.82 µM
UACC-257 melanoma
  GI50: 2 µM
  TGI: 4.15 µM
OVCAR-4 ovarian
  GI50: 1.64 µM
  TGI: 3.05 µM
OVCAR-5 ovarian
  GI50: 1.81 µM
  TGI: 4.05 µM
HT29 colon
  GI50: 1.99 µM
  TGI: 4.44 µM
NCI-H460 lung
  GI50: 1.79 µM
  TGI: 3.35 µM
RXF 393 renal
  GI50: 1.63 µM
  TGI: 3 µM
SNB-19 CNS
  GI50: 1.65 µM
  TGI: 3.07 µM
ACHN renal
  GI50: 1.61 µM
  TGI: 2.96 µM
MDA-MB-231 breast
  GI50: 1.51 µM
  TGI: 2.86 µM
MOLT-4 leukemia
  GI50: 2.12 µM
  TGI: 5.33 µM
HS 578T breast
  GI50: 1.74 µM
  TGI: 3.63 µM
MCF7 breast
  GI50: 1.75 µM
  TGI: 3.5 µM
SK-MEL-5 melanoma
  GI50: 1.76 µM
  TGI: 3.16 µM
NCI/ADR-RES ovarian
  GI50: 1.82 µM
  TGI: 3.48 µM
BT-549 breast
  GI50: 2.04 µM
  TGI: 4.26 µM
SF-295 CNS
  GI50: 1.8 µM
  TGI: 3.23 µM
SF-268 CNS
  GI50: 1.75 µM
  TGI: 3.45 µM
K-562 leukemia
  GI50: 1.86 µM
  TGI: 4.86 µM
HCC-2998 colon
  GI50: 1.55 µM
  TGI: 2.96 µM
PC-3 prostate
  GI50: 1.63 µM
  TGI: 3.19 µM
KM12 colon
  GI50: 1.68 µM
  TGI: 3.33 µM
SNB-75 CNS
  GI50: 1.25 µM
  TGI: 2.8 µM
M14 melanoma
  GI50: 1.77 µM
  TGI: 3.38 µM
SR leukemia
  GI50: 1.79 µM
  TGI: 4.23 µM
UO-31 renal
  GI50: 1.42 µM
  TGI: 2.76 µM
CCRF-CEM leukemia
  GI50: 3.12 µM
  TGI: 9.87 µM
SN12C renal
  GI50: 1.67 µM
  TGI: 3.16 µM
IGROV1 ovarian
  GI50: 1.78 µM
  TGI: 3.37 µM
UACC-62 melanoma
  GI50: 1.73 µM
  TGI: 3.19 µM
A498 renal
  GI50: 1.15 µM
  TGI: 4.62 µM
NCI-H23 lung
  GI50: 1.84 µM
  TGI: 3.62 µM

## O=C1NC2C(CC(O)C(O)C2O)c2cc3c(c(O)c21)OCO3 (stereo unspecified)
COLO 205 colon
  GI50: 0.0255 µM and < 0.01 µM
  TGI: 0.127 µM and 0.0156 µM
